Source: the supplement of paper PMC10307832

Key:
Assay in all cases: relative viability (nuclei count vs DMSO), 5 days (fraction); higher = more cells survive
[1] = compound: C[As](C)SC[C@H](NC(=O)CC[C@H](N)C(=O)O)C(=O)NCC(=O)O [Darinaparsin] + N=C(N)NC(=N)NCCc1ccccc1 [Phenformin] (partner 250 µM)
Outline: (§1)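 Lung cancer cell lines were pin-tool dosed in 1536-well plates on the day after seeding, with either a lone drug or a fixed anchor-drug dose plus five library-drug doses (not always all listed) in √10 steps. Nuclei were counted on 4× images after 5 days. Relative viability is the ratio of treated-well to vehicle-well nuclei counts, with each value a median of duplicate plates.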

QS11 + Luminespib = compound: C1CC2=C(C1)C=C(C=C2)OC3=NC(=C4C(=N3)N(C=N4)CC5=CC=C(C=C5)C6=CC=CC=C6)N[C@@H](CC7=CC=CC=C7)CO [QS11] + CCNC(=O)c1noc(-c2cc(C(C)C)c(O)cc2O)c1-c1ccc(CN2CCOCC2)cc1 [Luminespib] (partner 0.01 µM)
Outline: as §1

QS11 + Dasatinib = compound: C1CC2=C(C1)C=C(C=C2)OC3=NC(=C4C(=N3)N(C=N4)CC5=CC=C(C=C5)C6=CC=CC=C6)N[C@@H](CC7=CC=CC=C7)CO [QS11] + Cc1nc(Nc2ncc(C(=O)Nc3c(C)cccc3Cl)s2)cc(N2CCN(CCO)CC2)n1 [Dasatinib] (partner 0.075 µM)
Outline: as §1

QS11 + Bortezomib = compound: C1CC2=C(C1)C=C(C=C2)OC3=NC(=C4C(=N3)N(C=N4)CC5=CC=C(C=C5)C6=CC=CC=C6)N[C@@H](CC7=CC=CC=C7)CO [QS11] + CC(C)C[C@H](NC(=O)[C@H](Cc1ccccc1)NC(=O)c1cnccn1)B(O)O [Bortezomib] (partner 0.002 µM)
Outline: as §1

QS11 + Palbociclib = compound: C1CC2=C(C1)C=C(C=C2)OC3=NC(=C4C(=N3)N(C=N4)CC5=CC=C(C=C5)C6=CC=CC=C6)N[C@@H](CC7=CC=CC=C7)CO [QS11] + CC(=O)c1c(C)c2cnc(Nc3ccc(N4CCNCC4)cn3)nc2n(C2CCCC2)c1=O [Palbociclib] (partner 0.5 µM)
Outline: as §1

LCLC-97TM1
relative viability ([1]; first compound 0.08 µM): 0.417 | relative viability ([1]; first compound 0.8 µM): 0.412 | relative viability ([1]; first compound 2.53 µM): 0.444 | relative viability ([1]; first compound 8 µM): 0.302 | relative viability (QS11 + Luminespib; first compound 0.08 µM): 0.709 | relative viability (QS11 + Luminespib; first compound 0.253 µM): 0.907 | relative viability (QS11 + Luminespib; first compound 2.53 µM): 0.768 | relative viability (QS11 + Luminespib; first compound 8 µM): 0.69 | relative viability (QS11 + Dasatinib; first compound 0.08 µM): 0.777 | relative viability (QS11 + Dasatinib; first compound 0.253 µM): 0.932 | relative viability (QS11 + Dasatinib; first compound 2.53 µM): 0.868 | relative viability (QS11 + Dasatinib; first compound 8 µM): 1.01 | relative viability (QS11 + Bortezomib; first compound 0.253 µM): 0.971 | relative viability (QS11 + Bortezomib; first compound 0.8 µM): 0.611 | relative viability (QS11 + Bortezomib; first compound 2.53 µM): 0.537 | relative viability (QS11 + Bortezomib; first compound 8 µM): 1.18 | relative viability (QS11 + Palbociclib; first compound 0.253 µM): 0.204 | relative viability (QS11 + Palbociclib; first compound 2.53 µM): 0.213 | relative viability (QS11 + Palbociclib; first compound 8 µM): 0.277
